System: T1, CYP2C9
T1 construct: gene Cyp2c11; 'CYP2C9' is the human name, rat has no CYP2C9, rat Cyp2c forms turn over the diclofenac probe
Assay: diclofenac probe turnover in rat liver microsomes, LC-MS/MS
Format: biochemical
Conditions: 50 μM diclofenac; 0.5 mg/mL microsomal protein; 30 min incubation; 0-100 μM inhibitor

`C=C(CC[C@@H](C(=O)O)[C@H]1[C@H](O)C[C@@]2(C)C3=C(CC[C@]12C)[C@@]1(C)CC[C@H](OC(C)=O)C(C)(C)[C@@H]1CC3)C(C)C` [pachymic acid] gave an IC50 of 21.2 µM.
